Earlier results in patent publication US12498364B2, “Use of soluble urokinase plasminogen activator receptor levels to indicate prevention of cardiovascular disease with a statin” (The Regents of the University of Michigan, priority 2019, dated 2025).
“Also recorded” adds a separate entry of the source.

Key:
[1] = cited from earlier work
[2] = biological target: T1, interleukin 1β (Homo sapiens, UniProt P01584); details: patients with heart disease and hs-CRP>2.0 mg/L; cited from earlier work
T1 construct: host or cells: patients (in vivo, endogenous cytokine)

Compound | incidence of the primary outcome ([1]; overall study, HFpEF) | incidence of cardiovascular events compared to placebo ([1]; post-hoc, North American patients) | hs-CRP compared to placebo [2] | rate of cardiovascular events compared to placebo [2]
CC(=O)S[C@@H]1CC2=CC(=O)CC[C@]2(C)[C@H]2CC[C@@]3(C)[C@@H](CC[C@@]34CCC(=O)O4)[C@H]12 [spironolactone] | did not decrease the incidence of the primary outcome | lower incidence of cardiovascular events |  | 
canakinumab |  |  | reduction in hs-CRP | lower rate of cardiovascular events; also recorded: reduced risk of adverse cardiovascular events
